In patent US11311543B2, “Compositions and methods for inhibiting PTPN22” (YALE UNIVERSITY, priority 2016, dated 2022):

Experiments:
[1] = test system: RAMOS cells; experiment: Calcium flux induced by BCR triggering in RAMOS cells (flow cytometry); type: cell-based, human; settings: LTV-1 5 μg/mL, anti-IgM F(ab′)2, especially at lower concentration of BCR triggering agent
Procedure: FIG. 40A depicts the phosphorylation of SHIP1, Lyn and ERK1/2 in total cell lysates of Ramos B cells treated or not with the PTPN22 inhibitor LTV-1 (5 μg/mL) for the indicated times. The cells were subjected to immunoblot analysis of P-LYN P-SHIP1, P-ERK1/2, and β-ACTIN. FIG. 40B depicts flow cytometry analysis of calcium flux of Ramos B cells treated or not with the PTPN22 inhibitor LTV-1 (5 μg/mL) for the indicated times followed by stimulation with anti-IgM F(ab′)2 at the indicated concentrations. FIG. 40C depicts flow cytometry analysis of calcium flux of splenocyte cells treated or not with LTV-1 (0.75 mg) twice daily for 7 days and stimulated with anti-IgM F(ab′)2 (25 μg/mL). FIG. 40D depicts flow cytometry analysis of calcium flux of splenocyte expressing PTPN22 shRNA and stimulated with anti-IgM F(ab′)2 (25 μg/mL).
However, downstream ERK phosphorylation was not affected by PTPN22 inhibition (FIG. 40A). Since PTPN22 inhibition enhanced TCR signaling in Jurkat cell line, it was investigated if PTPN22 blockade may also increase BCR signaling and calcium flux induced by BCR triggering was measured in RAMOS cells in the presence or not of LTV-1. Calcium flux was increased by PTPN22 inhibition, especially at lower concentration of BCR triggering agent (FIG. 40B). […]

[2] = test system: mature naive B cells; experiment: Peripheral B cell tolerance checkpoint in NSG+thymus mouse carrying the 1858T PTPN22 allele; type: in vivo, NSG mouse engrafted with human fetal HSCs and thymic tissue; settings: LTV-1 0.75 mg twice daily for a month
Procedure: FIG. 41A depicts a schematic diagram depicting the LTV-1 PTPN22 inhibitor treatment strategy. A NSG+thymus mouse generated with CD34^+ HSCs and thymic graft carrying the 1858T PTPN22 allele was injected twice daily with 0.75 mg of PTPN22 inhibitor for four weeks. FIG. 41B depicts the frequencies of HEp-2 reactive mature naive B cells from NSG+thymus mice treated or not with the PTPN22 inhibitor were determined. […] For each B cell fraction, the frequency of reactive (filled area) and non-reactive (open area) clones is summarized in pie charts with the total number of clones tested indicated in the center. In summarized reactivity panels on the right, each symbol represents either a subject or a humanized mouse. Averages are shown with a bar. Statistically significant differences are indicated ****P≤0.0001, ***P≤0.001. FIG. 41C depicts the frequencies of polyreactive mature naive B cells from NSG+thymus mice treated or not with the PTPN22 inhibitor were determined. […] For each B cell fraction, the frequency of reactive (filled area) and non-reactive (open area) clones is summarized in pie charts with the total number of clones tested indicated in the center. In summarized reactivity panels on the right, each symbol represents either a subject or a humanized mouse. Averages are shown with a bar. Statistically significant differences are indicated ****P≤0.0001, ***P≤0.001. […]

[3] = test system: PTPN22; experiment: PTPN22 expression by western blot in shRNA-transduced RAMOS B cell line; type: cell-based; settings: human RAMOS B cell line, GFP+ shRNA+ vs GFP-
Procedure: FIG. 10A depicts flow cytometry analysis of Ramos B cells transduction efficiency. Ramos B cells were transduced with three different GFP-tagged shRNA PTPN22 expressing lentiviruses and probed for GFP expression. […] Percentage of knock-down is indicated. FIG. 10B depicts the frequencies of polyreactive new emigrant B cells from sorted GFP− fractions were determined. […] For each B-cell fraction, the frequency of reactive (filled area) and non-reactive (open area) clones is summarized in pie charts with the total number of clones tested indicated in the center. FIG. 10C depicts the frequencies of HEp-2 reactive new emigrant B cells from sorted GFP− fractions were determined. […] For each B-cell fraction, the frequency of reactive (filled area) and non-reactive (open area) clones is summarized in pie charts with the total number of clones tested indicated in the center. FIG. 10D depicts the frequencies of antinuclear new emigrant B cells are compared between GFP− and GFP+ shRNA+ new emigrant B cells. […]
Total cell lysates were separated by SDS page, transferred to PVDF membranes, probed with mouse anti-PTPN22 (Invitrogen) and detected by chemiluminescence (Amersham ECL Prime Western Blotting detection Reagent) using a GBox documentation system (Syngene). For quantification, blots were stripped with stripping buffer (Pierce) and reprobed with a mouse anti-β-Actin antibody (Sigma-Aldrich).

Row | Compound | calcium flux induced by BCR triggering [1] | impaired peripheral B cell tolerance checkpoint (autoreactive mature naive B cells) [2] | inhibition of PTPN22 expression detected by western blot [3]
1 | Cc1ccccc1N1C(=O)/C(=C/c2ccc(OCc3cccc(C(=O)O)c3)cc2)C(=O)NC1=S [LTV-1] | increased | effectively restored | –
2 | shRNA #1: shRNA targeting human PTPN22, 5′-CTAGTGCTCTTGGTGTATATT-3′, delivered by GFP-tagged lentivirus | – | – | about 80%
